Reference: US20260115209A1, “COMBINATION THERAPY INCLUDING COX-2 INHIBITOR FOR THE TREATMENT OF CANCER” (THE REGENTS OF THE UNIVERSITY OF CALIFORNIA, priority 2022, published 2026)

Legend:
Format in all cases: cell-based
SFK = assay: Western blot of SFK activation (Y419 phosphorylation); settings: BRAF^V600E CRC cell lines
Experimental: For samples to be analyzed with the HT-KAM platform, cells at ˜85% confluency were washed three times with cold PBS and lysed with freshly prepared 1× cell lysis buffer (1 ml per 2.5×10^6 cells) (lOX Cell Lysis Buffer, Cell Signaling; cat. #9803) complemented with 1× of Halt Protease & Phosphatase (100×, ThermoScientific; cat. #1861281). Cell lysates were collected and spun down at 14,000 rpm for 15 min at 4° C. and supernatants stored at −80° C. For samples to be analyzed by western blot, cell lysates were prepared with RIPA lysis buffer (150 mM NaCl, 0.1% SDS, 1% Nonidet P40, 1% sodium deoxycholate and 10 mM sodium phosphate, pH 7.2) supplemented with protease and phosphatase inhibitors. After clearing by centrifugation at 12,000 rpm for 10 minutes at 4° C., the lysates were analyzed as described in the respective experiments.
For western-blot, samples were denatured by boiling in 1× Laemmli buffer and run on an 8% SDS-PAGE gel. After transfer onto a PVDF membrane and blocking with 3% BSA, the membranes were incubated with primary antibodies overnight at 4° C., washed 3 times with TBST (Tris-buffered saline containing 0.05% Tween-20), incubated with secondary antibodies for 1 hour at room temperature and developed using chemoluminescence (cat #32209 from Pierce).
Antibodies anti-HSP90 was procured from Santa Cruz Biotechnologies (H-114, cat #7947). […]

RKO1 = assay: Cell viability assay (CellTiter-Glo), GI50, 3-day treatment; settings: 72 h; RKO1 (BRAF^V600E CRC); 50% growth inhibition after 3 days of treatment compared to control; read-out: GI50 concentrations
Experimental: (§1) To assess the growth/survival response of cell lines to single or combinatorial drug treatments, we used CellTiter-Glo cell viability assay (Promega; cat #G7571). Cell culture and luminescence readouts were performed in 96- and 384-well plates after 3-day treatments. GI50 corresponds to the concentration of a given drug that causes 50% inhibition of cell growth (GI50). The effects of drug combinations on cell growth were assessed by calculating fold change in VEM-sensitivity and combination index (C.I.) that were experimentally measured from ≥9 individual datapoints around drugs' GI50, i.e. at GI50, 0.5×GI50, 2×GI50 concentrations of each drug per drug combination experiment. To address the particular effects of some drug treatments on some cell lines, the choice of experimental datapoints centered around drugs' GI50 effects was adjusted by including individual datapoints ranging from ≥GI25 to ≤GI75, leading to calculate fold change in VEM-sensitivity and combination index (C.I.) from 12 to 20 individual datapoints, as previously explained (7).

OUMS23 = assay: as above; settings: OUMS-23, 72 h; OUMS23 (CRC MAP3K8^amp); 50% growth inhibition after 3 days of treatment compared to control; read-out: GI50 concentrations
Experimental: as §1

KM20 = assay: as above; settings: 72 h; KM20 (BRAF^V600E CRC); 50% growth inhibition after 3 days of treatment compared to control; read-out: GI50 concentrations
Experimental: as §1

WiDr = assay: as above; settings: Homo sapiens, 72 h; WiDr (BRAF^V600E CRC); 50% growth inhibition after 3 days of treatment compared to control; read-out: GI50 concentrations
Experimental: as §1

LS411N = assay: as above; settings: Homo sapiens, LS-411N, 72 h; LS411N (BRAF^V600E CRC); 50% growth inhibition after 3 days of treatment compared to control; read-out: GI50 concentrations
Experimental: as §1

HT29 = assay: as above; settings: Homo sapiens, HT-29, 72 h; HT29 (BRAF^V600E CRC); 50% growth inhibition after 3 days of treatment compared to control; read-out: GI50 concentrations
Experimental: as §1

VACO432 = assay: as above; settings: 72 h; VACO432 (BRAF^V600E CRC); 50% growth inhibition after 3 days of treatment compared to control; read-out: GI50 concentrations
Experimental: as §1

Sk-Mel-28 = assay: as above; settings: Homo sapiens, 72 h; Sk-Mel-28 (BRAF^V600E melanoma); 50% growth inhibition after 3 days of treatment compared to control; read-out: GI50 concentrations
Experimental: as §1

SNUC5 = assay: as above; settings: 72 h; SNUC5 (BRAF^V600E CRC); 50% growth inhibition after 3 days of treatment compared to control; read-out: GI50 concentrations
Experimental: as §1

A375 = assay: as above; settings: Homo sapiens, A-375, 72 h; A375 (BRAF^V600E melanoma); 50% growth inhibition after 3 days of treatment compared to control; read-out: GI50 concentrations
Experimental: as §1

LIM2405 = assay: as above; settings: 72 h; LIM2405 (BRAF^V600E CRC); 50% growth inhibition after 3 days of treatment compared to control; read-out: GI50 concentrations
Experimental: as §1

CCCS(=O)(=O)Nc1ccc(F)c(C(=O)c2c[nH]c3ncc(-c4ccc(Cl)cc4)cc23)c1F [vemurafenib, N-[3-[5-(4-chlorophenyl)-1H-pyrrolo[2,3-b]pyridine-3-carbonyl]-2,4-difluorophenyl]propane-1-sulfonamide]
SFK activation (phosphorylation of Y419) (SFK): increased SFK activation | GI50 (RKO1): 1.7 µM | GI50 (OUMS23): 1.4 µM | GI50 (KM20): 2 µM | GI50 (WiDr): 1.5 µM | GI50 (LS411N): 1.45 µM | GI50 (HT29): 1.75 µM | GI50 (VACO432): 1.15 µM | GI50 (Sk-Mel-28): 0.15 µM | GI50 (SNUC5): 2.25 µM | GI50 (A375): 0.01 µM | GI50 (LIM2405): 0.15 µM
